Measured values from patent US8791132B2, “Compounds and methods for treatment of hypertension” (Medivation Technologies, Inc., priority 2011, dated 2014).
Where “and” joins values, the source holds several entries; their conditions need not be identical. Identical values can stand only once. Like-named read-outs stand apart in the source and are kept apart here. Blank lines part the entries; values can stand above or below the molecule they belong to.

Experiments:
[1] = target: T1, human recombinant adrenergic α2B receptor (Homo sapiens, UniProt P18089); assay: Radioligand binding, adrenergic α2B ([3H]Rauwolscine); settings: for Percentage inhibition of ligand binding, Adrenergic α2B (0.03 μM) / Percentage inhibition of ligand binding, Adrenergic α2B: 0.03 µM
T1 construct: expressed in transfected cells; host or cells: CHO-K1
T1 sequence (P18089 1-450): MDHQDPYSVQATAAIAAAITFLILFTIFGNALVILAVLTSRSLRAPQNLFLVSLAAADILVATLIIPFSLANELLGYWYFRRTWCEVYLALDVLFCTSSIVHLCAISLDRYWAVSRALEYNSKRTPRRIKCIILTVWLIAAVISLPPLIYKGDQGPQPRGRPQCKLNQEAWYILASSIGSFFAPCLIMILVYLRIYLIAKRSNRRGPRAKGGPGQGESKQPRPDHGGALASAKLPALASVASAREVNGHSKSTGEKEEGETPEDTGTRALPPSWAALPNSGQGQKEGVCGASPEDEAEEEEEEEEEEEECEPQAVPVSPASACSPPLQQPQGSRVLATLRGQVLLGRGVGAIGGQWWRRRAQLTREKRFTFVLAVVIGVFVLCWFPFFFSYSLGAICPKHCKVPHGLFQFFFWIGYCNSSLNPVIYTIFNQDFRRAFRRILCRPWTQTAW
In short: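 Receptor expressed in CHO-K1 cells, assayed in 50 mM Tris-HCl pH 7.4 with 12.5 mM MgCl2, 1 mM EDTA and 0.2% BSA. Compounds were incubated with 2.5 nM [3H]Rauwolscine for 60 min at 25° C; 10 μM Prazosin defined non-specific binding. Filter counting gave percent inhibition of specific binding.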

[2] = target: T2, human recombinant adrenergic α2A receptor (Homo sapiens, UniProt P08913); assay: Radioligand binding, adrenergic α2A ([3H]MK-912)
T2 construct: expressed in transfected cells; host or cells: insect Sf9 cells
T2 sequence (P08913 1-465): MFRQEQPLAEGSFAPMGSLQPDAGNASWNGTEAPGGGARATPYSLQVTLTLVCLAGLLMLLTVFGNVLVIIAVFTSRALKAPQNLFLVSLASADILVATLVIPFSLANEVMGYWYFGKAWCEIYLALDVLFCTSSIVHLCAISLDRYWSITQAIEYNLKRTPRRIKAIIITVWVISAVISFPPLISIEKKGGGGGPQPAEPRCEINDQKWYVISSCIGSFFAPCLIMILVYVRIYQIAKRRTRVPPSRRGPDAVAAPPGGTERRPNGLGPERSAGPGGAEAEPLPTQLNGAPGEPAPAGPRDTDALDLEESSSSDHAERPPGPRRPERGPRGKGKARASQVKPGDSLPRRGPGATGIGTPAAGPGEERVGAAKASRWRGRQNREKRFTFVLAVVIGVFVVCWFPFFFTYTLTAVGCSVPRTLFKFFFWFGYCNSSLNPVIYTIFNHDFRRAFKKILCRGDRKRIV
In short: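 In 50 mM Tris-HCl (pH 7.4) containing 12.5 mM MgCl2 and 2 mM EDTA, Sf9-expressed receptor was exposed to test compound plus 1 nM [3H]MK-912 at 25 °C for 60 min. Specific binding, corrected using 10 μM WB-4101, was quantified by filtration and counting and expressed as percent inhibition.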

[3] = target: T3, rat adrenergic α1B receptor (Rattus norvegicus, UniProt P15823); assay: Radioligand binding, adrenergic α1B ([3H]Prazosin); settings: for Percentage inhibition of ligand binding, Adrenergic α1B (0.1 μM) / Percentage inhibition of ligand binding, Adrenergic α1B: 0.1 µM
T3 construct: rat adrenergic α1B receptor obtained from Wistar Rat liver; from tissue; host or cells: Wistar rat liver
T3 sequence (P15823 1-515): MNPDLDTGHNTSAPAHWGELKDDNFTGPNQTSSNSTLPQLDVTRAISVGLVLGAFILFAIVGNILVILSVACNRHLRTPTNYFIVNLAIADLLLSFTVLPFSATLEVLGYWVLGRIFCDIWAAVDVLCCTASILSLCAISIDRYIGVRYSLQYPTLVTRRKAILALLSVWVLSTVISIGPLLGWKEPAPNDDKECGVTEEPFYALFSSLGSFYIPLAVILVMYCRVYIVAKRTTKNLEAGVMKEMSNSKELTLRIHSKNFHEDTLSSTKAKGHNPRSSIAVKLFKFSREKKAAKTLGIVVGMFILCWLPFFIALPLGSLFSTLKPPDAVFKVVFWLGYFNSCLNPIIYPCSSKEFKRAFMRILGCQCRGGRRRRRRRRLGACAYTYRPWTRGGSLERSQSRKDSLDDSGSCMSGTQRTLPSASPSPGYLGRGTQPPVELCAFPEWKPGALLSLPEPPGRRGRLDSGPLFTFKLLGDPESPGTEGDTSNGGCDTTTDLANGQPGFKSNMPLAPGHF
Procedure: To evaluate in radioligand binding assays the activity of compounds of the invention, rat adrenergic α1B receptor obtained from Wistar Rat liver (Garcia-S'ainz, J. et al, Biochem. Biophys. Res. Commun. 186:760, 1992; Michel, A. et al, Br. J. Pharmacol. 98:883, 1989) in a modified Tris-HCl buffer (50 mM Tris-HCl buffer, pH 7.4, 0.5 mM EDTA) was used. Compounds of the invention were incubated with 0.25 nM [^3H]Prazosin for 60 min at 25° C. Non-specific binding was estimated in the presence of 10 μM phentolamine. Receptor proteins were filtered and washed, the filters were then counted to determine [^3H]Prazosin specifically bound. […] Compounds of the invention were tested in this biochemical assay and percent inhibition of specific binding was determined. Biochemical assay results are presented as the percent inhibition of specific binding in Table B1.

[4] = compound at 0.03 μM, [3H]Rauwolscine, repeat datapoints each shown
[5] = compound at 0.1 μM, [3H]MK-912, repeat datapoints each shown, 0.1 µM
[6] = compound at 0.1 μM, [3H]Prazosin, repeat datapoints each shown
[7] = compound at 0.03 μM, [3H]Rauwolscine, repeat assays, each datapoint shown
[8] = compound at 0.1 μM, [3H]MK-912, repeat assays, each datapoint shown, 0.1 µM
[9] = compound at 0.1 μM, [3H]Prazosin, repeat assays, each datapoint shown
[10] = read-out: Percentage inhibition of ligand binding, Adrenergic α2B (0.03 μM), compound at 0.03 μM, [3H]Rauwolscine, repeat datapoints each shown
[11] = read-out: Percentage inhibition of ligand binding, Adrenergic α2A (0.1 μM), compound at 0.1 μM, [3H]MK-912, repeat datapoints each shown
[12] = read-out: Percentage inhibition of ligand binding, Adrenergic α1B (0.1 μM), compound at 0.1 μM, [3H]Prazosin, repeat datapoints each shown
[13] = compound at 0.03 μM, [3H]Rauwolscine, repeat assays, each datapoint shown, read-out: Percentage inhibition of ligand binding, Adrenergic α2B
[14] = 0.03 μM compound, read-out: Percentage inhibition of ligand binding, Adrenergic α2B
[15] = 0.1 μM compound, read-out: Percentage inhibition of ligand binding, Adrenergic α2A
[16] = 0.1 μM compound, read-out: Percentage inhibition of ligand binding, Adrenergic α1B

Percentage inhibition of ligand binding, Adrenergic α2B (0.03 μM) [1, 4]: 43%
Percentage inhibition of ligand binding, Adrenergic α2A (0.1 μM) [2, 5]: 5%
Percentage inhibition of ligand binding, Adrenergic α1B (0.1 μM) [3, 6]: 13%
SMILES: Cc1ccc2c(c1)c1c(n2CC(C)(O)c2cccnc2)CC(C)N(C)C1 (single isomer, unassigned) [II-146b, 2-(pyridin-3-yl)-1-(2,3,8-trimethyl-3,4-dihydro-1H-pyrido[4,3-b]indol-5(2H)-yl)propan-2-ol]

Percentage inhibition of ligand binding, Adrenergic α2B (0.03 μM) [1, 4]: 102%
Percentage inhibition of ligand binding, Adrenergic α2A (0.1 μM) [2, 5]: 29%
Percentage inhibition of ligand binding, Adrenergic α1B (0.1 μM) [3, 6]: 57%
SMILES: Cc1ccc2c(c1)c1c(n2CC(N=[N+]=[N-])c2ccncc2)CCN(C)C1 (racemic) [V-1b, 5-(2-azido-2-(pyridin-4-yl)ethyl)-2,3,4,5-tetrahydro-2,8-dimethyl-1H-pyrido[4,3-b]indole]

Percentage inhibition of ligand binding, Adrenergic α2B [1, 7]: 90%
Percentage inhibition of ligand binding, Adrenergic α2A [2, 8]: 26%
Percentage inhibition of ligand binding, Adrenergic α1B [3, 9]: 36%
SMILES: COc1ccc(C(O)Cn2c3c(c4cc(C)ccc42)CN(C)CC3)cn1 (single isomer, unassigned) [51b, 2-(2,8-dimethyl-1,2,3,4-tetrahydro-pyrido[4,3-b]indol-5-yl)-1-(6-methoxy-pyridin-3-yl)-ethanol]

inhibition at 0.03 µM [1, 10]: 19%
inhibition at 0.1 µM [2, 11]: 83%
inhibition at 0.1 µM [3, 12]: 3%
SMILES: Cc1ccc(CCn2c3c(c4c(Br)ccc(Cl)c42)CN(C)CC3)cn1 [II-247, 9-bromo-6-chloro-2,3,4,5-tetrahydro-2-methyl-5-(2-(6-methylpyridin-3-yl)ethyl)-1H-pyrido[4,3-b]indole]

SMILES: CC(O)(Cn1c2c(c3cc(Cl)ccc31)CN(C1CCC1)CC2)c1cccnc1 (single isomer, unassigned) [II-118b]
Percentage inhibition of ligand binding, Adrenergic α2B (0.03 μM) [1, 4]: −3%
Percentage inhibition of ligand binding, Adrenergic α2A (0.1 μM) [2, 5]: 5%
Percentage inhibition of ligand binding, Adrenergic α1B (0.1 μM) [3, 6]: 11%

Percentage inhibition of ligand binding, Adrenergic α2B [1, 7]: 37%
Percentage inhibition of ligand binding, Adrenergic α2A [2, 8]: −2%
Percentage inhibition of ligand binding, Adrenergic α1B [3, 9]: 75%
SMILES: Cc1ccc2c(c1)c1c(n2CC(O)c2ccncc2)CCN(C)CC1 (single isomer, unassigned) [13a, 2-(3,9-dimethyl-2,3,4,5-tetrahydroazepino[4,5-b]indol-6(1H)-yl)-1-(pyridin-4-yl)ethanol]

inhibition at 0.03 µM [1, 10]: 97%
inhibition at 0.1 µM [2, 11]: 34%
inhibition at 0.1 µM [3, 12]: 61%
SMILES: Cc1ccc2c(c1)c1c(n2CC(C)(O)c2ccc(C)nc2)CCN2CCCC12 (centres unmarked) [II-128a, 1-(9-methyl-1,2,3,4,5,10c-hexahydro-3a,6-diaza-cyclopenta[c]fluoren-6-yl)-2-(6-methyl-pyridin-3-yl)-propan-2-ol]

inhibition at 0.03 µM [1, 13]: 46%
Percentage inhibition of ligand binding, Adrenergic α2A ([2]; compound at 0.1 μM, [3H]MK-912, repeat assays, each datapoint shown): 10%
Percentage inhibition of ligand binding, Adrenergic α1B [3, 9]: 14%
SMILES: Cc1ccc2c(c1)c1c(n2CC(C)(O)c2ccc(C)nc2)CCN(C)C1 (centres unmarked) [29b]

inhibition at 0.03 µM [1, 10]: 7%
inhibition at 0.1 µM [2, 11]: 2%
inhibition at 0.1 µM [3, 12]: 2%
SMILES: Cc1ccc2c(c1CO)c1c(n2CC(C)(O)c2cccnc2)CCN(C)C1 (centres unmarked) [II-153]

inhibition at 0.03 µM [1, 14]: 49%
inhibition at 0.1 µM [2, 15]: 10%
inhibition at 0.1 µM [3, 16]: 2%
SMILES: CN1CCc2c(c3cc(CO)ccc3n2CC(C)(O)c2cccnc2)C1 (centres unmarked) [II-102]

inhibition at 0.03 µM [1, 14]: 54%
inhibition at 0.1 µM [2, 15]: -3%
inhibition at 0.1 µM [3, 16]: 23%
SMILES: Cc1ccc2c(c1)c1c(n2CC(O)c2ccncc2)CCN(CCO)C1 (centres unmarked) [II-64, 2-[2-(2-hydroxy-ethyl)-8-methyl-1,2,3,4-tetrahydro-pyrido[4,3-b]indol-5-yl]-1-pyridin-4-yl-ethanol]

Percentage inhibition of ligand binding, Adrenergic α2B [1, 7]: −2%
Percentage inhibition of ligand binding, Adrenergic α2A [2, 8]: −1%
Percentage inhibition of ligand binding, Adrenergic α1B [3, 9]: 5%
SMILES: Cc1ccc2c(c1)c1c(n2CC(O)c2cccnc2)CCN(CCO)C1 (single isomer, unassigned) [21a]

Percentage inhibition of ligand binding, Adrenergic α2B ([1]; 0.03 μM compound): 65%
Percentage inhibition of ligand binding, Adrenergic α2A ([2]; 0.1 μM compound, 0.1 µM): 11%
Percentage inhibition of ligand binding, Adrenergic α1B ([3]; 0.1 μM compound): 18%
SMILES: CNC(Cn1c2c(c3cc(C)ccc31)CN(C)CC2)c1ccc(F)cc1 (centres unmarked) [II-12, 2-(2,8-dimethyl-3,4-dihydro-1H-pyrido[4,3-b]indol-5(2H)-yl)-1-(4-fluorophenyl)-N-methyl ethanamine]

inhibition at 0.03 µM [1, 13]: 105%
Percentage inhibition of ligand binding, Adrenergic α2A [2, 8]: 30%
Percentage inhibition of ligand binding, Adrenergic α1B [3, 9]: 39%
SMILES: Cc1ccc2c(c1)c1c(n2CC(OC(=O)C(C)C)c2ccncc2)CCN(C)C1 (single isomer, unassigned) [54a, 2-(1,2,3,4-tetrahydro-2,8-dimethylpyrido[4,3-b]indol-5-yl)-1-(pyridin-4-yl)ethyl isobutyrate]

inhibition at 0.03 µM [1, 10]: 30%
inhibition at 0.1 µM [2, 11]: 5%
inhibition at 0.1 µM [3, 12]: 14%
SMILES: Cc1ccc2c(c1CO)c1c(n2CC(O)c2ccncc2)CCN(C)C1 (centres unmarked) [II-150, 2-(9-(hydroxymethyl)-2,8-dimethyl-3,4-dihydro-1H-pyrido[4,3-b]indol-5(2H)-yl)-1-(pyridin-4-yl)ethanol]

Percentage inhibition of ligand binding, Adrenergic α2B [1, 7]: 33%
Percentage inhibition of ligand binding, Adrenergic α2A [2, 8]: 8%
inhibition at 0.1 µM ([3]; compound at 0.1 μM, [3H]Prazosin, repeat assays, each datapoint shown, read-out: Percentage inhibition of ligand binding, Adrenergic α1B): 14%
SMILES: CCC1c2c(c3cc(C)ccc3n2CC(O)c2ccncc2)C2CCN1C2 (single isomer, unassigned) [36a]

Percentage inhibition of ligand binding, Adrenergic α2B (0.03 μM) [1, 4]: 62% and 71%
Ki ([1]; read-out: Ki α2B): 7.91 nM
inhibition at 0.1 µM ([1]; read-out: Percentage inhibition of ligand binding, Adrenergic α2B (0.1 μM), compound at 0.1 μM, [3H]Rauwolscine, repeat datapoints each shown): 86%
Percentage inhibition of ligand binding, Adrenergic α2A (0.1 μM) [2, 5]: 22%
inhibition at 0.1 µM [3, 12]: 13%
SMILES: CN1CCc2c(c3cc(C(F)(F)F)ccc3n2CC(C)(O)c2cccnc2)C1 (single isomer, unassigned) [174a]
